Our source for the IC50 values is patent publication US10889592B2, “Thienopyrazine carboxamides as ubiquitin-specific protease inhibitors” (VALO EARLY DISCOVERY, INC., priority 2016, dated 2021).

SMILES strings stand for the structures.

For one assay, the target named is USP25 (Homo sapiens (Human), UniProt Q9UHP3). In words: Ubiquitin-Rhodamine 110 Assay for USP25 Activity. The assay is classed as biochemical. The settings on record: Ub-Rh110 substrate 25 nM, fluorescence readout. Here is the method:
The assay was performed in a final volume of 9 μL in assay buffer containing 20 mM Tris-HCl (pH 8.0, (1M Tris-HCl, pH 8.0 solution; Corning 46-031-CM)), 3 mM BME (2-Mercaptoethanol; Sigma 63689-25ML-F), 0.03% BGG ([…] filtered. Sigma, G7516-25G), and 0.01% Triton X-100 (Sigma, T9284-10L). Nanoliter quantities of 10-point, 3-fold serial dilution in DMSO was pre-dispensed into 1536 assay plates (Corning, #3724BC) for a final test concentration of 25 μM to 1.3 nM, top to lowest dose, respectively. Enzyme USP25, construct USP25-His6, (Boston Biochem E-546). Concentration and incubation times were optimized for the maximal signal-to-background while maintaining initial velocity conditions at a fixed substrate concentration. The final concentration of the enzyme in the assay was 75 pM. Final substrate (Ub-Rh110 Ubiquitin-Rhodamine 110, R&D Systems # U-555) concentration was 25 nM with [Ub-Rh110]<<Km. 3 μL of 2× enzyme was added to assay plates (pre-stamped with compound) preincubated with […] for 30 minutes and then 3 μL of 2×Ub-Rh110 was added to assay plates. Plates were incubated for 45 minutes at room temperature before addition of 3 μL of stop solution (final concentration of 10 mM citric acid (Sigma, 251275-500G)). Fluorescence was read on the Envision (Excitation at 485 nm and Emission at 535 nm; Perkin Elmer) or on the PheraSTAR (Excitation at 485 nm and Emission at 535 nm; BMG Labtech).
(§1) For both the USP28 and USP25 assay formats Data were reported as percent inhibition compared with control wells based on the following equation: % inh=1−((FLU−AveLow)/(AveHigh−AveLow)) where FLU=measured Fluorescence, AveLow=average Fluorescence of no enzyme control (n=16), and AveHigh=average Fluorescence of DMSO control (n=16). IC50 values were determined by curve fitting of the standard 4 parameter logistic fitting algorithm included in the Activity Base software package: IDBS XE Designer Model205. Data is fitted using the Levenburg Marquardt algorithm.

For a further assay, the target named is USP28 (Homo sapiens (Human), UniProt Q96RU2). The assay is described as follows: Ubiquitin-Rhodamine 110 Assay for USP28 Activity. The settings on record: Ub-Rh110 substrate 25 nM, fluorescence readout. Format: biochemical. Here is the method: Each assay was performed in a final volume of 20 μL in assay buffer containing 20 mM Tris-HCl (pH 8.0, (1M Tris-HCl, pH 8.0 solution; Corning 46-031-CM)), 2 mM CaCl2) (1M Calcium Chloride solution; Sigma #21114) 2 mM BME (2-Mercaptoethanol; Sigma 63689-25ML-F), 0.01% Prionex (0.22 μM filtered, Sigma # G-0411), and 0.01% Triton X-100. Stock compound solutions were stored at −20° C. as 10 mM in DMSO. Up to 1 month prior to the assay, 2 mM test compounds were pre-dispensed into assay plates (Black, low volume; Corning #3820) and frozen at −20° C. Prestamped assay plates were allowed to come to room temperature on the day of the assay. For the screen, 100 nL of 2 mM was pre-dispensed for a final screening concentration of 10 μM (DMSO(fc)=0.5%). Enzyme (USP28, construct USP28 (USP28-5(1-1077)-TEV-6*His; LifeSensors) concentration and incubation times were optimized for the maximal signal-to-background while maintaining initial velocity conditions at a fixed substrate concentration. The final concentration of the enzyme in the assay was 400 pM. Final substrate (Ub-Rh110; Ubiquitin-Rhodamine 110, R&D Systems # U-555) concentration was 25 nM with [Ub-Rh110]<<Km. 10 μL of 2× enzyme was added to assay plates (pre-stamped with compound) either simultaneously with 2×Ub-Rh110 or preincubated with USP28 40 minutes prior to the addition of 10 μL of 2×Ub-Rh110 to compound plates. Plates were incubated stacked for 90 minutes at room temperature before fluorescence was read on the Envision (Excitation at 485 nm and Emission at 535 nm; Perkin Elmer) or on the PheraSTAR (Excitation at 485 nm and Emission at 535 nm; BMG Labtech).
Sequence of USP28 (Q96RU2 whole entry): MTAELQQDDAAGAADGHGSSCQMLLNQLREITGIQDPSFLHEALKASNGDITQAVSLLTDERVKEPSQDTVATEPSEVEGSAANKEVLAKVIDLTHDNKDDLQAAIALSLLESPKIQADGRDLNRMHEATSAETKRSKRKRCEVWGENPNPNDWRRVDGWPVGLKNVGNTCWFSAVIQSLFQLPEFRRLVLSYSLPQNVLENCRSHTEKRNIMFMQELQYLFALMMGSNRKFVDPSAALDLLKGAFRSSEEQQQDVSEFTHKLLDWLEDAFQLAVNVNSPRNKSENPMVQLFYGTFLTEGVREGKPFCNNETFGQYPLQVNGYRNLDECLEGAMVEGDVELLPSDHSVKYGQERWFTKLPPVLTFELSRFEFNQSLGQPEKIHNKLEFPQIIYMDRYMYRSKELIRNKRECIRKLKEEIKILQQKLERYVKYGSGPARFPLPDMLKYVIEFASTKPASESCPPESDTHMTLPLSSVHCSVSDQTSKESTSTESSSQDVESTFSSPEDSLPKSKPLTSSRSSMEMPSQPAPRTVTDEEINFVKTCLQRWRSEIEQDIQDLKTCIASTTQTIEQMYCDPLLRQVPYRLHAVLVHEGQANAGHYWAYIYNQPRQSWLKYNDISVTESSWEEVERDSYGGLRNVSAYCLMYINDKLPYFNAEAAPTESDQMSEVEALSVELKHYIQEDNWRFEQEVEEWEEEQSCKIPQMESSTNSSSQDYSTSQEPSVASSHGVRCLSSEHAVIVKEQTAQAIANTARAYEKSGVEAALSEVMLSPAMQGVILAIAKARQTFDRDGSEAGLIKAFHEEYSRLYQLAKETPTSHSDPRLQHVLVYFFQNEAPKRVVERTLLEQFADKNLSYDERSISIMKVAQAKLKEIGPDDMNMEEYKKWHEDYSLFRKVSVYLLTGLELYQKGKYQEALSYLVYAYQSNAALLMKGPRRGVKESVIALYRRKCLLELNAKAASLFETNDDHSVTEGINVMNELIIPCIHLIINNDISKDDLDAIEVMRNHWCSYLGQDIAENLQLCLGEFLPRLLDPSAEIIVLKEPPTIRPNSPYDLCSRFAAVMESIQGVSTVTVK
For follow-up studies, Each assay was performed in a final volume of 15 μL in assay buffer containing 20 mM Tris-HCl (pH 8.0, (1M Tris-HCl, pH 8.0 solution; Corning 46-031-CM)), 3 mM BME (2-Mercaptoethanol; Sigma 63689-25ML-F), 0.03% BGG ([…] filtered, Sigma, G7516-25G), and 0.01% Triton X-100 (Sigma, T9284-10L). Nanoliter quantities of either an 8-point or 10-point, 3-fold serial dilution in DMSO was pre-dispensed into assay plates (Perkin Elmer, ProxiPlate-384 F Plus, #) for a final test concentration of either 25 μM to 11 nM or 25 μM to 1.3 nM, respectively. Enzyme USP28, construct USP28 (USP28-5(1-1077)-TEV-6*His; LifeSensors) concentration and incubation times were optimized for the maximal signal-to-background while maintaining initial velocity conditions at a fixed substrate concentration. The final concentration of the enzyme in the assay was 75 pM. Final substrate (Ub-Rh110; Ubiquitin-Rhodamine 110, R&D Systems # U-555) concentration was 25 nM with [Ub-Rh110]<<Km. 5 μL of 2× enzyme was added to assay plates (pre-stamped with compound) preincubated with USP28 for 30 minutes and then 5 μL of 2×Ub-Rh110 was added to assay plates. Plates were incubated stacked for 20 minutes at room temperature before 5 μL of stop solution was added (final concentration of 10 mM citric acid (Sigma, 251275-500G)). Fluorescence was read on the Envision (Excitation at 485 nm and Emission at 535 nm; Perkin Elmer) or on the PheraSTAR (Excitation at 485 nm and Emission at 535 nm; BMG Labtech).
as §1

Sequence of USP25 (Q9UHP3 whole entry): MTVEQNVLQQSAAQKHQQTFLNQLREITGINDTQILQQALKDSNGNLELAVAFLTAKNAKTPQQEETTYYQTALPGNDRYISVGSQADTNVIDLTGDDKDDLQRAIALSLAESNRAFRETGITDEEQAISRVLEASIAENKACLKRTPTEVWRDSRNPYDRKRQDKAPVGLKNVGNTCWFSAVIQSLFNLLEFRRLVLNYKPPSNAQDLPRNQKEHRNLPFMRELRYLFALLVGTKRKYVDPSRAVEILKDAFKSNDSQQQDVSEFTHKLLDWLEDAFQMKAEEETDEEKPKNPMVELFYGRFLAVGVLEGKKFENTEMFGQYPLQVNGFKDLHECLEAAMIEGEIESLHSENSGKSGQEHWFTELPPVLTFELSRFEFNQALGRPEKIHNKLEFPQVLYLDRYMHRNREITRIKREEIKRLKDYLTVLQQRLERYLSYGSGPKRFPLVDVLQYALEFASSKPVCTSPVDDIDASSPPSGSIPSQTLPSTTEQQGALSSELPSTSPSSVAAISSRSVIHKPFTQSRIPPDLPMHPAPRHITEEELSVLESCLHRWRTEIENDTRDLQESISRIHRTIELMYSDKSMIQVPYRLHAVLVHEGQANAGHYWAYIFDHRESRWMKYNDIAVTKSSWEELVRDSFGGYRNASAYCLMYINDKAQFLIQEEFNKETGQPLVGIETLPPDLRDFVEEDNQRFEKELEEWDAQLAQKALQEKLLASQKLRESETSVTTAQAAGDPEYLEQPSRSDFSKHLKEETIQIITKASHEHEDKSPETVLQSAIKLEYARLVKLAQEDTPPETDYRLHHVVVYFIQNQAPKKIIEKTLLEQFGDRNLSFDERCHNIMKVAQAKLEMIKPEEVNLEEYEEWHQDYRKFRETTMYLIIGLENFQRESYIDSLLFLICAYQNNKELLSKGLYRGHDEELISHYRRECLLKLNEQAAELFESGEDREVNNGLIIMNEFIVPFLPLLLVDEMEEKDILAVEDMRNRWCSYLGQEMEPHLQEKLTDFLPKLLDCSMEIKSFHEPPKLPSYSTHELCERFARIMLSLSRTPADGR

For the compound `Cc1cnc2c(N)c(C(=O)NC[C@H](C)c3ccc(N4CC5CCC(C4)N5)cc3F)sc2n1` (single isomer, unassigned) [Compound I-17], the IC50 against USP25 was 2000 to 10000 nM; at USP28, 200 to 2000 nM.
The matching figures for `Cc1cnc2c(N)c(C(=O)NCCc3c(F)cc(N4CC5CNCC(C4)O5)cc3F)sc2n1` [Compound I-20]: < 200 nM and < 200 nM.
Consider `CCc1cnc2c(N)c(C(=O)NCCc3ccc(N4CC5CCC(C4)N5)cc3)sc2n1` [Compound I-23], for which the values for the concentration for half-maximal inhibition (IC50) against USP25 and against USP28 were 200 to 2000 nM and 2000 to 10000 nM, respectively.
The matching figures for `Cc1cnc2c(N)c(C(=O)NC[C@@H](C)c3ccc(N4CC5CCC(C4)N5)cc3F)sc2n1` (single isomer, unassigned) [Compound I-16]: 200 to 2000 nM and 200 to 2000 nM.
The corresponding values for `Cc1cnc2c(N)c(C(=O)NCCc3c(F)cc(N4CC5CCC(C4)N5)cc3F)sc2n1` [Compound I-11] are 200 to 2000 nM and 200 to 2000 nM.
In the case of `Cc1cnc2c(N)c(C(=O)NCCc3cc(F)c(N4CCNCC4)cc3F)sc2n1` [Compound I-4], the IC50 against USP25 was in the range of 2000 to 10000 nM; at USP28, 200 to 2000 nM.
Consider `Cc1cnc2c(N)c(C(=O)NC[C@H](C)c3cc(F)c(N4CC5CNCC(C4)O5)cc3F)sc2n1` (single isomer, unassigned) [Compound I-22], for which the IC50 against USP25 and against USP28 was 200 to 2000 nM in each case.
On to `Cc1cnc2c(N)c(C(=O)NC[C@H](C)c3ccc(N4CC5CCC(C4)N5)c(F)c3)sc2n1` (single isomer, unassigned) [Compound I-13], for which the IC50 fell in the range of 2000 to 10000 nM on USP25 and 200 to 2000 nM at USP28.
As for `Cc1cnc2c(N)c(C(=O)NC[C@@H](C)c3ccc(N4CC5CCC(C4)N5)c(C#N)c3)sc2n1` (single isomer, unassigned) [Compound I-18], the IC50 against USP25 and against USP28 was 2000 to 10000 nM throughout.
With `Cc1cnc2c(N)c(C(=O)NC[C@@H](C)c3cc(F)c(N4CC5CNCC(C4)O5)cc3F)sc2n1` (single isomer, unassigned) [Compound I-21], the IC50 at USP25 and against USP28 was 200 to 2000 nM each time.
On to `Cc1cnc2c(N)c(C(=O)NCCc3ccc(N4CCNCC4)cc3)sc2n1` [Compound I-1, 7-Amino-3-methyl-N-(4-(piperazin-1-yl)phenethyl)thieno[2,3-b]pyrazine-6-carboxamide], for which, at USP28, the IC50 was in the range of 200 to 2000 nM.
As for `Cc1cnc2c(N)c(C(=O)NC[C@@H](C)c3ccc(N4CC5CCC(C4)N5)c(F)c3)sc2n1` (single isomer, unassigned) [Compound I-12], the IC50 at USP25 is 2000 to 10000 nM; against USP28 it was 200 to 2000 nM.
The corresponding values for `Cc1cnc2c(N)c(C(=O)NCCc3cc(F)c(N4CC5CCC(C4)N5)cc3F)sc2n1` [Compound I-7, N-(4-(3,8-diazabicyclo[3.2.1]octan-3-yl)-2,5-difluorophenethyl)-7-amino-3-methylthieno[2,3-b]pyrazine-6-carboxamide] are 200 to 2000 nM and < 200 nM.
The corresponding values for `Cc1cnc2c(N)c(C(=O)NC[C@H](C)c3cc(F)c(N4CC5CCC(C4)N5)cc3F)sc2n1` (single isomer, unassigned) [Compound I-15] are 2000 to 10000 nM and < 200 nM.
Regarding `Cc1cnc2c(N)c(C(=O)NCCc3ccc(N4CC5CCC(C4)N5)c(F)c3)sc2n1` [Compound I-6], the IC50 on USP25 and at USP28 was < 200 nM in each case.
In the case of `Cc1cnc2c(N)c(C(=O)NCCc3ccc(N4CC5CCC(C4)N5)c(C#N)c3)sc2n1` [Compound I-9], the IC50 against USP25 and against USP28 was 200 to 2000 nM in each case.
For the compound `Cc1cnc2c(N)c(C(=O)NCCc3ccc(N4CC5CCC(C4)N5)cc3F)sc2n1` [Compound I-10], the concentration for half-maximal inhibition (IC50) is 200 to 2000 nM against USP25 and < 200 nM against USP28.
The corresponding values for `Cc1cnc2c(N)c(C(=O)NC[C@H](C)c3ccc(N4CC5CCC(C4)N5)c(C#N)c3)sc2n1` (single isomer, unassigned) [Compound I-19] are 2000 to 10000 nM and 2000 to 10000 nM.
As for `Cc1cnc2c(N)c(C(=O)NC[C@@H](C)c3cc(F)c(N4CC5CCC(C4)N5)cc3F)sc2n1` (single isomer, unassigned) [Compound I-14], the IC50 at USP28 is 2000 to 10000 nM.
With `Cc1cnc2c(N)c(C(=O)NCCc3ccc(N4CCNCC4)c(Cl)c3)sc2n1` [Compound I-2], the IC50 on USP28 is 200 to 2000 nM.
For the compound `Cc1cnc2c(N)c(C(=O)NCCc3ccc(N4CC5CCC(C4)N5)c(Cl)c3)sc2n1` [Compound I-3, N-(4-(3,8-diazabicyclo[3.2.1]octan-3-yl)-3-chlorophenethyl)-7-amino-3-methylthieno[2,3-b]pyrazine-6-carboxamide], the half-inhibitory concentration (IC50) on USP28 was < 200 nM.
